Assay type in all cases: functional
The test system of assay [1] is NCI-H522. As to the kind of experiment: Cytotoxicity against human NCI-H522 cells assessed as cell mortality at 10 uM after 48 hrs by SRB assay. As to conditions: NCI-H522, 48 h. A general note: Sulforhodamine B stains cellular protein and so reports cell mass.
Assay [2] concerns A549. Put plainly: Cytotoxicity against human A549 cells assessed as cell growth at 10 uM after 48 hrs by SRB assay. As to conditions: A549, 48 h, read-out: Activity.
Assay [3] in a line: Cytotoxicity against human HOP62 cells assessed as cell growth at 10 uM after 48 hrs by SRB assay. As to conditions: HOP-62, 48 h, read-out: Activity.
The nature of assay [4]: Cytotoxicity against human HOP92 cells assessed as cell growth at 10 uM after 48 hrs by SRB assay. As to conditions: HOP-92, 48 h, read-out: Activity.
The test system of assay [5] is HT-29. Put plainly: Cytotoxicity against human HT-29 cells assessed as cell growth at 10 uM after 48 hrs by SRB assay. The conditions noted are these: HT-29, 48 h, read-out: Activity.
The test system of assay [6] is KM12. Put plainly: Cytotoxicity against human KM12 cells assessed as cell growth at 10 uM after 48 hrs by SRB assay. As to conditions: KM12, 48 h, read-out: Activity.
Assay [7] relates to Malme-3M. As to the kind of experiment: Cytotoxicity against human MALME-3M cells assessed as cell growth at 10 uM after 48 hrs by SRB assay. As to conditions: read-out: Activity.
In assay [8] the test system is M14. Put plainly: Cytotoxicity against human M14 cells assessed as cell growth at 10 uM after 48 hrs by SRB assay. As to conditions: M14, 48 h, read-out: Activity.
Assay [9] has as its system MDA-MB-435. Put plainly: Cytotoxicity against human MDA-MB-435 cells assessed as cell growth at 10 uM after 48 hrs by SRB assay. As to conditions: MDA-MB-435, 48 h, read-out: Activity.
Assay [10] concerns SK-MEL-28. Put plainly: Cytotoxicity against human SK-MEL-28 cells assessed as cell growth at 10 uM after 48 hrs by SRB assay. As to conditions: SK-MEL-28, 48 h, read-out: Activity.
A short description of assay [11]: Cytotoxicity against human SKOV3 cells assessed as cell growth at 10 uM after 48 hrs by SRB assay. The conditions noted are these: SK-OV-3, 48 h, read-out: Activity.
For assay [12], the system named is SN12C. As to the kind of experiment: Cytotoxicity against human SN12C cells assessed as cell growth at 10 uM after 48 hrs by SRB assay. As to conditions: read-out: Activity.
Assay [13] in a line: Cytotoxicity against human BT549 cells assessed as cell growth at 10 uM after 48 hrs by SRB assay. As to conditions: BT-549, 48 h, read-out: Activity.
Assay [14] concerns NCI-H226. Put plainly: Cytotoxicity against human NCI-H226 cells assessed as cell mortality at 7.25 uM after 48 hrs by SRB assay. The conditions noted are these: NCI-H226, 48 h.
In assay [15] the test system is NCI-H522. As to the kind of experiment: Cytotoxicity against human NCI-H522 cells assessed as cell mortality at 7.25 uM after 48 hrs by SRB assay. As to conditions: NCI-H522, 48 h.
Assay [16] in a line: Cytotoxicity against human COLO205 cells assessed as cell growth at 7.25 uM after 48 hrs by SRB assay. The conditions noted are these: COLO 205, 48 h, read-out: Activity.
The nature of assay [17]: Cytotoxicity against human HCT116 cells assessed as cell growth at 7.25 uM after 48 hrs by SRB assay. As to conditions: HCT-116, 48 h, read-out: Activity.
The nature of assay [18]: Cytotoxicity against human SF539 cells assessed as cell growth at 7.25 uM after 48 hrs by SRB assay. The conditions noted are these: SF-539, 48 h, read-out: Activity.
The nature of assay [19]: Cytotoxicity against human SNB19 cells assessed as cell growth at 7.25 uM after 48 hrs by SRB assay. The conditions noted are these: SNB-19, 48 h, read-out: Activity.
In assay [20] the test system is MDA-MB-435. Put plainly: Cytotoxicity against human MDA-MB-435 cells assessed as cell growth at 7.25 uM after 48 hrs by SRB assay. The conditions noted are these: MDA-MB-435, 48 h, read-out: Activity.
The test system of assay [21] is SK-MEL-5. As to the kind of experiment: Cytotoxicity against human SK-MEL-5 cells assessed as cell growth at 7.25 uM after 48 hrs by SRB assay. The conditions noted are these: SK-MEL-5, 48 h, read-out: Activity.
A short description of assay [22]: Cytotoxicity against human UACC257 cells assessed as cell growth at 7.25 uM after 48 hrs by SRB assay. The conditions noted are these: UACC-257, 48 h, read-out: Activity.
A short description of assay [23]: Cytotoxicity against human UO31 cells assessed as cell growth at 7.25 uM after 48 hrs by SRB assay. As to conditions: UO-31, 48 h, read-out: Activity.
Assay [24] has as its system MDA-MB-231. Put plainly: Cytotoxicity against human MDA-MB-231 cells assessed as cell growth at 7.25 uM after 48 hrs by SRB assay. The conditions noted are these: MDA-MB-231, 48 h, read-out: Activity.
Assay [25] concerns CCRF-CEM. As to the kind of experiment: Cytotoxicity against human CCRF-CEM cells assessed as cell growth at 7.25 uM after 48 hrs by SRB assay. The conditions noted are these: read-out: Activity.
Assay [26] is described as follows: Cytotoxicity against human MOLT4 cells assessed as cell growth at 7.25 uM after 48 hrs by SRB assay. The conditions noted are these: MOLT-4, 48 h, read-out: Activity.
Assay [27] is described as follows: Cytotoxicity against human HOP62 cells assessed as cell growth at 7.25 uM after 48 hrs by SRB assay. As to conditions: HOP-62, 48 h, read-out: Activity.
The nature of assay [28]: Cytotoxicity against human SF539 cells assessed as cell growth at 2.13 uM after 48 hrs by SRB assay. As to conditions: SF-539, 48 h, read-out: Activity.
Assay [29] is described as follows: Cytotoxicity against human SNB19 cells assessed as cell growth at 2.13 uM after 48 hrs by SRB assay. The conditions noted are these: SNB-19, 48 h, read-out: Activity.
Assay [30] relates to M14. As to the kind of experiment: Cytotoxicity against human M14 cells assessed as cell growth at 2.13 uM after 48 hrs by SRB assay. As to conditions: M14, 48 h, read-out: Activity.
The nature of assay [31]: Cytotoxicity against human SKOV3 cells assessed as cell growth at 2.13 uM after 48 hrs by SRB assay. The conditions noted are these: SK-OV-3, 48 h, read-out: Activity.
Assay [32] in a line: Cytotoxicity against human RXF393 cells assessed as cell growth at 2.13 uM after 48 hrs by SRB assay. The conditions noted are these: RXF 393, 48 h, read-out: Activity.
The nature of assay [33]: Cytotoxicity against human TK10 cells assessed as cell growth at 2.13 uM after 48 hrs by SRB assay. As to conditions: TK-10, 48 h, read-out: Activity.
Assay [34] is described as follows: Cytotoxicity against human UO31 cells assessed as cell growth at 2.13 uM after 48 hrs by SRB assay. The conditions noted are these: UO-31, 48 h, read-out: Activity.
Assay [35] concerns CCRF-CEM. As to the kind of experiment: Cytotoxicity against human CCRF-CEM cells assessed as cell growth at 2.13 uM after 48 hrs by SRB assay. The conditions noted are these: read-out: Activity.
The nature of assay [36]: Cytotoxicity against human HL-60(TB) cells assessed as cell growth at 2.13 uM after 48 hrs by SRB assay. The conditions noted are these: HL-60, 48 h, read-out: Activity.
Assay [37] can be described thus: Cytotoxicity against human HOP92 cells assessed as cell growth at 2.13 uM after 48 hrs by SRB assay. As to conditions: HOP-92, 48 h, read-out: Activity.
Assay [38] relates to NCI-H23. As to the kind of experiment: Cytotoxicity against human NCI-H23 cells assessed as cell growth at 2.13 uM after 48 hrs by SRB assay. The conditions noted are these: NCI-H23, 48 h, read-out: Activity.
Assay [39] deals with NCI-H460. Put plainly: Cytotoxicity against human NCI-H460 cells assessed as cell growth at 2.13 uM after 48 hrs by SRB assay. As to conditions: NCI-H460, 48 h, read-out: Activity.
The nature of assay [40]: Cytotoxicity against human HCT116 cells assessed as cell growth at 2.13 uM after 48 hrs by SRB assay. As to conditions: HCT-116, 48 h, read-out: Activity.
Assay [41] can be described thus: Cytotoxicity against human SW620 cells assessed as cell growth at 2.13 uM after 48 hrs by SRB assay. As to conditions: SW-620, 48 h, read-out: Activity.

These results are taken from ChEMBL document CHEMBL3822390, “Synthesis, characterization and anti-cancer activity of a peptide nucleolipid bioconjugate” (2016).

On to `CC(C)C[C@H](NC(=O)[C@H](CCCCN)NC(=O)[C@H](C)NC(=O)[C@H](CC(C)C)NC(=O)[C@H](CCCCN)NC(=O)[C@H](CCCCN)NC(=O)[C@H](C)NC(=O)[C@H](CC(C)C)NC(=O)[C@H](CCCCN)NC(=O)[C@H](C)NC(=O)[C@H](CC(C)C)NC(=O)[C@H](CCCCN)NC(=O)[C@@H](N)CC(=O)O)C(=O)N[C@@H](C)C(=O)N[C@@H](CCCCN)C(=O)N[C@@H](C)C(=O)N[C@@H](CCCCN)C(N)=O`, for which the mortality at 10 µM in assay [1] amounted to 14%. Also, the growth at 10 µM in assay [2] stood at 81%; in assay [3], 104%; in [4], 86.1%; in assay [5] it was 94.8%; in assay [6], 103%; in [7], 107%. For the same compound, the growth at 10 µM in assay [8] is 108%; in assay [9] it was 108%; in assay [10], 104%; in [11], 98.7%; in [12], 99%; in assay [13], 105%.
With `CCCCCCCCCCCCCCCC(=O)NCCCC[C@H](NC(=O)[C@H](C)NC(=O)[C@H](CCCCN)NC(=O)[C@H](C)NC(=O)[C@H](CC(C)C)NC(=O)[C@H](CCCCN)NC(=O)[C@H](C)NC(=O)[C@H](CC(C)C)NC(=O)[C@H](CCCCN)NC(=O)[C@H](CCCCN)NC(=O)[C@H](C)NC(=O)[C@H](CC(C)C)NC(=O)[C@H](CCCCN)NC(=O)[C@H](C)NC(=O)[C@H](CC(C)C)NC(=O)[C@H](CCCCN)NC(=O)[C@@H](N)CC(=O)O)C(N)=O`, the mortality at 7.25 µM is 0% in assay [14] and 16% in assay [15]. The growth at 7.25 µM in [16] came out at 112%; in assay [17], 92.3%; in assay [18], 102%; in assay [19] it was 103%; in assay [20], 113%; in assay [21] it was 102%. Also, the growth at 7.25 µM in assay [22] was determined as 73.1%; in assay [23], 87.3%; in assay [24] it was 104%; in assay [25] it was 111%; in assay [26], 97.6%; in assay [27], 99.8%.
With `CCCCCCCCCCCCCCCCNCCO[C@H]1C[C@H](n2cc(C)c(=O)[nH]c2=O)O[C@@H]1C(=O)NCCCC[C@H](NC(=O)[C@H](C)NC(=O)[C@H](CCCCN)NC(=O)[C@H](C)NC(=O)[C@H](CC(C)C)NC(=O)[C@H](CCCCN)NC(=O)[C@H](C)NC(=O)[C@H](CC(C)C)NC(=O)[C@H](CCCCN)NC(=O)[C@H](CCCCN)NC(=O)[C@H](C)NC(=O)[C@H](CC(C)C)NC(=O)[C@H](CCCCN)NC(=O)[C@H](C)NC(=O)[C@H](CC(C)C)NC(=O)[C@H](CCCCN)NC(=O)[C@@H](N)CC(=O)O)C(N)=O`, the growth at 2.13 µM in [28] turned out to be 98.8%; in [29], 106%; in assay [30], 98.5%; in assay [31], 98.4%; in assay [32] it was 113%; in [33], 95.9%. In addition, the growth at 2.13 µM came out at 81.2% in assay [34]; 108% in assay [35]; 93.8% in assay [36]; 86.8% in assay [37]; 106% in [38]; 109% in assay [39]. Besides, the figures for the growth at 2.13 µM in assay [40] and in assay [41] were 99.9% and 108%, respectively.

What is called mortality is the share of the test organisms that died.
